A short description of data set [1]: Photophysical properties (excitation/emission wavelength, absolute quantum yield, fluorescence intensity in PBS). The format is physicochemical. Conditions: for Φ (quantum yield): absolute quantum yield. The method, then: All reactions were carried out under an atmosphere of nitrogen or argon in air-dried glassware with magnetic stirring. Air- and/or moisture-sensitive liquids were transferred with syringe. Organic solutions were concentrated by rotary evaporation at 25-60° C. at 15-30 torr. All solvents and common materials were purchased from suppliers and used without further purification. Column chromatography was carried out as “Flash Chromatography” using Biotage MPLC machine. ^1H NMR and ^13C NMR data were recorded on an JEOL ECZ-600R Magnetic Resonance System (600 MHz) in Ajou University. Recorded shifts are reported in parts per million (6): Chemical shift, multiplicity (s=singlet, d=doublet, t=triplet, q=quartet, m=multiplet, br=broad), coupling constant (J, Hz) and integration. Low resolution mass spectrometry (LRMS) was obtained by LC/MS system, Finnigan MSQplus Surveyer (Thermo Scientific) or 6120 Quadrupole LC/MS (Agilent Technologies). The progress of reaction was monitored using thin layer chromatography (TLC) (silica gel 60, F254 0.25 mm), and components were visualized by observation under UV light (254 and 365 nm) or by treating the TLC plates with Phosphonolybdic acid (PMA), KMnO4, or ninhydrin followed by heating. Cell culture reagents including fatal bovine serum, culture media, and antibiotic-antimycotic solution were purchased from GIBCO. MitoTracker Green, and Hoechst were purchased from Invitrogen. The culture dish and glassbottom dish were purchased from CORNING, and SPL. All spectra experiments were performed in a 1×1 cm quartz cuvette. Fluorescence emission spectra were recorded on JASCO FP-8200 spectrofluorometer, and UV absorption spectra were recorded on JASCO V-670 spectrophotometer. Absolute quantum yield was measured by QE-2000 (Otsuka Electronics).

Data set [2] concerns mitochondria in HeLa cells. Briefly: Colocalization test of SiR-Mito probes with MitoTracker green in HeLa cells. The note with it: 1 μM probe, 1 h; for Mitochondria Targeting (Pearson coefficient for colocalization with MitoTracker green): 0.5 μM MitoTracker green. The format is cell-based, human. The method, then:
HeLa cells were incubated with cell culture media containing 1 μM SiR-Mito probe, and 0.5 μM MitoTracker green. After 1 h, HeLa cells were washed three times with 1×PBS for and observed with a LEICA DMi8 fluorescent microscope. Each experiment was observed using 512-542 nm emitter for FITC channel (for MitoTracker Green), and 663-738 nm exciter, 545-625 nm emitter for Cy5 channel (for SiR-Mito probes). Scale bar: 50 μm.
HeLa human cervical cancer cells were cultured in Dulbecco's modified eagle media (DMEM, GIBCO) containing 10% fetal bovine serum (FBS, GIBCO) and 1% penicillin (GIBCO) at 37° C. in a humidified incubator with 5% CO2. For the fluorescence microscope imaging, cells were harvested using TrypLE™ Express (GIBCO) and resuspended in fresh culture medium. Harvested cells with a density of 4.0×10^3 cells/well were seeded on a HeLa 96 black well plate (CORNING) and incubated for 24 h. Cells were incubated with SiR-Mito probes (1 μM) and MitoTracker Green (0.5 μM) for 60 min. After the incubation, cells were washed with 1×PBS for three times and observed with inverted fluorescence microscope (DMi8, LEICA). Each experiment was observed using a 325-375 nm exciter, 435-485 nm emitter for DAPI channel, 460-500 nm exciter, 512-542 nm emitter for FITC channel, 541-551 nm exciter, 565-605 nm emitter for Rhodamine channel, and 663-738 nm exciter, 545-625 nm emitter for Cy5 channel.
To determine the effect of probe hydrophobicity on the efficiency of targeting to mitochondria, the Pearson coefficient for colocalization of SiR-Mito probes and MitoTracker green, a commercial fluorescent mitochondrial bioprobe, was measured (FIG. 1). For the colocalization test, human cervical cancer HeLa cells were seeded on 96-well plates and incubated for 1 h with 1 μM of each different SiR-Mito probe and 0.5 μM MitoTracker green, washed briefly with 1×PBS, and imaged with a LEICA DMi8 fluorescent microscope using the 40× objective.

Experimental findings from patent US11761894B2, “Silicon-rhodamine fluorescent probe containing hydrophobic group and use thereof” (AJOU UNIVERSITY INDUSTRY—ACADEMIC COOPERATION FOUNDATION, priority 2019, dated 2023) are described below.

Turning to `Cc1ccc(C(=O)NCCO)cc1C1=C2C=CC(=[N+](C)C)C=C2[Si](C)(C)c2cc(N(C)C)ccc21` [SiR-Mito 1, N-(7-(dimethylamino)-10-(5-((2-hydroxyethyl)carbamoyl)-2-methylphenyl)-5,5-dimethyldibenzo[b,e]silin-3(5H)-ylidene)-N-methylmethanaminium], in data set [1], the “Em (emission wavelength)” value came to 668 nm, the “Ex (excitation wavelength)” value came to 661 nm and the “Φ (quantum yield)” value worked out at 0.32. In addition, in data set [2], the “Intracellular fluorescence (SiR channel)” value is “absence of fluorescence signal”.
Consider `CCNC(=O)c1ccc(C)c(C2=C3C=CC(=[N+](C)C)C=C3[Si](C)(C)c3cc(N(C)C)ccc32)c1` [SiR-Mito 2, N-(7-(dimethylamino)-10-(5-(ethylcarbamoyl)-2-methylphenyl)-5,5-dimethyldibenzo[b,e]silin-3(5H)-ylidene)-N-methylmethanaminium], for which, in data set [1], the “Em (emission wavelength)” value worked out at 668 nm, the “Ex (excitation wavelength)” value was 662 nm and the “Φ (quantum yield)” value came out at 0.40. In data set [2], the “Mitochondria Targeting (Pearson coefficient for colocalization with MitoTracker green)” value (from here on “Mitochondria Targeting”) is “* (* 0.7 ≤ R < 0.8)”.
Regarding `CCCCNC(=O)c1ccc(C)c(C2=C3C=CC(=[N+](C)C)C=C3[Si](C)(C)c3cc(N(C)C)ccc32)c1` [SiR-Mito 3, N-(10-(5-(butylcarbamoyl)-2-methylphenyl)-7-(dimethylamino)-5,5-dimethyldibenzo[b,e]silin-3(5H)-ylidene)-N-methylmethanaminium], in data set [1], the “Em (emission wavelength)” value amounted to 665 nm, the “Ex (excitation wavelength)” value was found to be 652 nm and the “Φ (quantum yield)” value stood at 0.29.
With `Cc1ccc(C(=O)NCc2ccccc2)cc1C1=C2C=CC(=[N+](C)C)C=C2[Si](C)(C)c2cc(N(C)C)ccc21` [SiR-Mito 4, N-(10-(5-(benzylcarbamoyl)-2-methylphenyl)-7-(dimethylamino)-5,5-dimethyldibenzo[b,e]silin-3(5H)-ylidene)-N-methylmethanaminium], in data set [1], the “Em (emission wavelength)” value stood at 666 nm, the “Ex (excitation wavelength)” value was 651 nm and the “Φ (quantum yield)” value was determined as 0.30. Also, in data set [2], the “Mitochondria Targeting” value is recorded as “* (* 0.7 ≤ R < 0.8)”.
With `Cc1ccc(C(=O)NCCc2ccccc2)cc1C1=C2C=CC(=[N+](C)C)C=C2[Si](C)(C)c2cc(N(C)C)ccc21` [SiR-Mito 6, N-(7-(dimethylamino)-5,5-dimethyl-10-(2-methyl-5-(phenethylcabamoyl)phenyl)dibenzo[b,e]silin-3(5H)-ylidene)-N-methylmethanaminium], in data set [1], the “Em (emission wavelength)” value is recorded as 668 nm, the “Ex (excitation wavelength)” value came out at 651 nm and the “Φ (quantum yield)” value turned out to be 0.30. Besides, in data set [2], the “Mitochondria Targeting” value is given as “*** (*** 0.9 ≤ R)”.
In the case of `Cc1ccc(C(=O)NC(C)(C)CC(C)(C)C)cc1C1=C2C=CC(=[N+](C)C)C=C2[Si](C)(C)c2cc(N(C)C)ccc21` [SiR-Mito 7, N-(7-(dimethylamino)-5,5-dimethyl-10-(2-methyl-5-((2,4,4-trimethylpentan-2-yl)carbamoyl)phenyl)dibenzo[b,e]silin-3(5H)-ylidene)-N-methylmethanaminium], in data set [1], the “Em (emission wavelength)” value is on record as 667 nm, the “Ex (excitation wavelength)” value is 650 nm and the “Φ (quantum yield)” value is recorded as 0.29. Also, the “Mitochondria Targeting” value in data set [2] is listed as “*** (*** 0.9 ≤ R)”.
The matching figures for `Cc1ccc(C(=O)NCCC2CCCCC2)cc1C1=C2C=CC(=[N+](C)C)C=C2[Si](C)(C)c2cc(N(C)C)ccc21` [SiR-Mito 9, N-(10-(5-((2-cyclohexylethyl)carbamoyl)-2-methylphenyl)-7-(dimethylamino)-5,5-dimethyldibenzo[b,e]silin-3(5H)-ylidene)-N-methylmethanaminium]: 666 nm, 652 nm, 0.26 and “*** (*** 0.9 ≤ R)”.
With `CCCCCCC(C)NC(=O)c1ccc(C)c(C2=C3C=CC(=[N+](C)C)C=C3[Si](C)(C)c3cc(N(C)C)ccc32)c1` (centres unmarked) [SiR-Mito 10, N-(7-(dimethylamino)-5,5-dimethyl-10-(2-methyl-5-(octan-2-ylcarbamoyl)phenyl)dibenzo[b,e]silin-3(5H)-ylidene)-N-methylmethanaminium], in data set [1], the “Em (emission wavelength)” value came to 667 nm, the “Ex (excitation wavelength)” value was 654 nm and the “Φ (quantum yield)” value came out at 0.27. Also, the “Mitochondria Targeting” value in data set [2] was “*** (*** 0.9 ≤ R)”.
As for “N-(10-(5-((cyclohexylmethyl) carbamoyl)-2-methylphenyl)-7 (dimethylamino)-5,5-dimethyldibenzo[b,e]silin-3(5H)-ylidene)-N-methylmethanaminium [SiR-Mito 5]”, in data set [1], the “Em (emission wavelength)” value came to 669 nm, the “Ex (excitation wavelength)” value is listed as 651 nm and the “Φ (quantum yield)” value turned out to be 0.29. In data set [2], the “Mitochondria Targeting” value is listed as “* (* 0.7 ≤ R < 0.8)”.
